“And” between values parts separate entries of the source, which are not always exact repeats. Equal entries are not always repeated.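 96-well plates; 48 h exposure; 5 concentrations. Endpoints by linear interpolation between flanking doses. Not reached: highest tested concentration assigned. GI50 = concentration required for 50% inhibition of growth. TGI denotes the concentration required for complete inhibition of growth.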
Legend:
Assay in all cases: growth of human tumour cells (NCI), 48 h
786-0 renal = system: 786-0 renal
A498 renal = system: A498 renal
A549 NSCLC = system: A549 NSCLC
ACHN renal = system: ACHN renal
BT-549 breast = system: BT-549 breast
CAKI-1 renal = system: CAKI-1 renal
CCRF-CEM leukemia = system: CCRF-CEM leukemia
COLO 205 colon = system: COLO 205 colon
DU-145 prostate = system: DU-145 prostate
EKVX NSCLC = system: EKVX NSCLC
HCC-2998 colon = system: HCC-2998 colon
HCT-116 colon = system: HCT-116 colon
HCT-15 colon = system: HCT-15 colon
HL-60(TB) leukemia = system: HL-60(TB) leukemia
HOP-62 NSCLC = system: HOP-62 NSCLC
HOP-92 NSCLC = system: HOP-92 NSCLC
HS 578T breast = system: HS 578T breast
HT29 colon = system: HT29 colon
IGROV1 ovarian = system: IGROV1 ovarian
K-562 leukemia = system: K-562 leukemia
KM12 colon = system: KM12 colon
LOX IMVI melanoma = system: LOX IMVI melanoma
M14 melanoma = system: M14 melanoma
MALME-3M melanoma = system: MALME-3M melanoma
MCF7 breast = system: MCF7 breast
MDA-MB-231 breast = system: MDA-MB-231 breast
MDA-MB-435 = system: MDA-MB-435
MOLT-4 leukemia = system: MOLT-4 leukemia
NCI-H226 lung = system: NCI-H226 lung

For `COc1cc2nccc(Oc3ccc(NC(=O)Nc4cc(C)on4)c(Cl)c3)c2cc1OC`, the GI50 (786-0 renal) was 3.43 µM and 4.11 µM, the TGI (786-0 renal) was 23.3 µM and > 10 µM and the GI50 (A498 renal) was 0.532 µM and 1.46 µM. The TGI (A498 renal) was 2.67 µM and 4.6 µM, the GI50 (A549 NSCLC) was 3.15 µM and 4.31 µM and the TGI (A549 NSCLC) was 19.1 µM and > 10 µM. The GI50 (ACHN renal) was 3.28 µM and 3.72 µM, the TGI (ACHN renal) was 22.3 µM and > 10 µM and the GI50 (BT-549 breast) was 4.16 µM and 4.99 µM. The TGI (BT-549 breast) was 13.4 µM and > 10 µM, the GI50 (CAKI-1 renal) was 2.58 µM and 2.25 µM and the TGI (CAKI-1 renal) was 7.67 µM and > 10 µM. For the same compound, the GI50 (CCRF-CEM leukemia) was 3.1 µM, the TGI (CCRF-CEM leukemia) was over 100 µM and the GI50 (COLO 205 colon) was 3.22 µM and 3.04 µM. The TGI (COLO 205 colon) was 32.7 µM and > 10 µM, the GI50 (DU-145 prostate) was 4.31 µM and 6.6 µM and the TGI (DU-145 prostate) was over 77.8 µM. The GI50 (EKVX NSCLC) was 3.02 µM and 4.69 µM, the TGI (EKVX NSCLC) was 49.6 µM and > 10 µM and the GI50 (HCC-2998 colon) was 9 µM and > 10 µM. For the same compound, the TGI (HCC-2998 colon) was over 100 µM, the GI50 (HCT-116 colon) was 2.29 µM and 2.91 µM and the TGI (HCT-116 colon) was 5.48 µM and > 10 µM. For the same compound, the GI50 (HCT-15 colon) was 4.36 µM and 4.2 µM, the TGI (HCT-15 colon) was over 100 µM and the GI50 (HL-60(TB) leukemia) was 3.35 µM and 3.2 µM. The TGI (HL-60(TB) leukemia) was 11.8 µM and > 10 µM, the GI50 (HOP-62 NSCLC) was 5.58 µM and > 10 µM and the TGI (HOP-62 NSCLC) was over 100 µM. For the same compound, the GI50 (HOP-92 NSCLC) was 2.58 µM and 0.911 µM, the TGI (HOP-92 NSCLC) was 6.27 µM and 3.44 µM and the GI50 (HS 578T breast) was 1.48 µM and 1.54 µM. The TGI (HS 578T breast) was 5.78 µM and > 10 µM, the GI50 (HT29 colon) was 3.01 µM and 2.78 µM and the TGI (HT29 colon) was 15.5 µM and > 10 µM. For the same compound, the GI50 (IGROV1 ovarian) was 2.51 µM and 2.85 µM, the TGI (IGROV1 ovarian) was 8.36 µM and > 10 µM and the GI50 (K-562 leukemia) was 0.0349 µM and 0.0609 µM. For the same compound, the TGI (K-562 leukemia) was over 100 µM, the GI50 (KM12 colon) was 0.178 µM and 0.25 µM and the TGI (KM12 colon) was over 66.6 µM. The GI50 (LOX IMVI melanoma) was 2.21 µM and 2.19 µM, the TGI (LOX IMVI melanoma) was 8.14 µM and > 10 µM and the GI50 (M14 melanoma) was 2.55 µM and 3.05 µM. The TGI (M14 melanoma) was 7.83 µM and > 10 µM, the GI50 (MALME-3M melanoma) was 1.92 µM and 6.17 µM and the TGI (MALME-3M melanoma) was 8.17 µM and > 10 µM. The GI50 (MCF7 breast) was 3.35 µM, the TGI (MCF7 breast) was 56.2 µM and > 10 µM and the GI50 (MDA-MB-231 breast) was 2.18 µM and 2.42 µM. The TGI (MDA-MB-231 breast) was 8.73 µM and > 10 µM, the GI50 (MDA-MB-435) was 2.74 µM and 2.98 µM and the TGI (MDA-MB-435) was over 59.6 µM. For the same compound, the GI50 (MOLT-4 leukemia) was 2.12 µM and 1.86 µM, the TGI (MOLT-4 leukemia) was 44.1 µM and > 10 µM and the GI50 (NCI-H226 lung) was 0.795 µM and 0.438 µM. The TGI (NCI-H226 lung) was 35.2 µM and > 10 µM.

Reference: PubChem BioAssay (NCI)
